Test results taken from publication PMC8185074, “Anchor extension: a structure-guided approach to design cyclic peptides targeting enzyme active sites” (Nature Communications, 2021).

Key:
Format in all cases: biochemical
HDAC6 = target: T1, HDAC6 (Homo sapiens, UniProt Q9UBN7); assay: HDAC6 inhibition, full IC50 measurement (Reaction Biology; fluorogenic p53 peptide RHKK(Ac)AMC)
T1 construct: purchased Reaction Biology Corporation (assay run by the CRO)
T1 sequence (Q9UBN7 1-1215): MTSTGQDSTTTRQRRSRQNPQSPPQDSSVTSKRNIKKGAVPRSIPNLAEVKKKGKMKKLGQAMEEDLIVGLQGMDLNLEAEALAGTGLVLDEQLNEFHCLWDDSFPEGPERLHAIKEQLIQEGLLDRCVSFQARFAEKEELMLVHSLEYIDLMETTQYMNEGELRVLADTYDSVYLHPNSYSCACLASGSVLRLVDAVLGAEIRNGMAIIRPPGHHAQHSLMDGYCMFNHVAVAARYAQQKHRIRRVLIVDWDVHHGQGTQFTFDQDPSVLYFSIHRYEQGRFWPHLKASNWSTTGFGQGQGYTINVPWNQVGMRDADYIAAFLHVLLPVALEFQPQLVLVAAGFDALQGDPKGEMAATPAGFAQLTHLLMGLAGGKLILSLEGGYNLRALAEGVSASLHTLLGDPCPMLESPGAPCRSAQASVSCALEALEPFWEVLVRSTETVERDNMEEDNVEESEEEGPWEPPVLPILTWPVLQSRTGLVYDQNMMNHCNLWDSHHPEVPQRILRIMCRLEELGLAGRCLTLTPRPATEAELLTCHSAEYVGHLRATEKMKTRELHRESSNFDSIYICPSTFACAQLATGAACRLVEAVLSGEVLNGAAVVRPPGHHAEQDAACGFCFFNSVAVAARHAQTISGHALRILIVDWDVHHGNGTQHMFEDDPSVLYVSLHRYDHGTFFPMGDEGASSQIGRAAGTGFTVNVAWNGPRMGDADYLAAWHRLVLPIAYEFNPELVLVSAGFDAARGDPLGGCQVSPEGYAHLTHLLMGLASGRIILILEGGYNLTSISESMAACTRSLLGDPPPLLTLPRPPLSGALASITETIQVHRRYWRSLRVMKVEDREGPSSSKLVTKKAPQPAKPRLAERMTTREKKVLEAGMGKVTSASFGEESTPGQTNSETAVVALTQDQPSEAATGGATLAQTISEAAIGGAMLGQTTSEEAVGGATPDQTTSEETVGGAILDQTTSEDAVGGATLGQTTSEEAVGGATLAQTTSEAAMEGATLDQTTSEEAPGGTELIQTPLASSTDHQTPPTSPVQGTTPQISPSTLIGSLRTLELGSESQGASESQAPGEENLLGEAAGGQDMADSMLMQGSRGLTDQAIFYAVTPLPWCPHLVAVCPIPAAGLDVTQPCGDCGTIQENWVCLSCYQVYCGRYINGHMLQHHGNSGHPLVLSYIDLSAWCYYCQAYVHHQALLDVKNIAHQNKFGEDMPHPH
Method in brief: (§1)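 Reaction: enzyme plus acoustically dispensed peptide inhibitor, 50 μM RHKK(Ac)AMC substrate, pH 8.0 Tris buffer with BSA and 1% DMSO, 1 h, 30 °C. Duplicates averaged.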

HDAC3 = target: T2, HDAC3 (Homo sapiens, UniProt O15379); assay: HDAC3 inhibition, full IC50 measurement (Reaction Biology; fluorogenic p53 peptide RHKK(Ac)AMC)
T2 construct: purchased Reaction Biology Corporation (assay run by the CRO)
T2 sequence (O15379 whole entry): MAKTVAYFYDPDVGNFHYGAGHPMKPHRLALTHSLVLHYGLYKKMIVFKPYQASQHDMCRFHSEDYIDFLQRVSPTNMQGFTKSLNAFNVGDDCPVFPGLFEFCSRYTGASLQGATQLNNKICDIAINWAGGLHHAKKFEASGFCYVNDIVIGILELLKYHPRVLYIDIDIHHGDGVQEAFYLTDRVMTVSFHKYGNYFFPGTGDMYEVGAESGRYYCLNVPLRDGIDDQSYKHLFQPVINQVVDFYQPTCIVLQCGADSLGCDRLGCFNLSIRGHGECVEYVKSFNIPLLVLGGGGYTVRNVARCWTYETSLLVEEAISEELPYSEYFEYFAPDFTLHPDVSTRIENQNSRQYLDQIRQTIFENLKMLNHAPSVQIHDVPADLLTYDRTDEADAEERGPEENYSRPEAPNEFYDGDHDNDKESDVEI
T2 sequence (Q9Y618 395-489 partner limits assumed): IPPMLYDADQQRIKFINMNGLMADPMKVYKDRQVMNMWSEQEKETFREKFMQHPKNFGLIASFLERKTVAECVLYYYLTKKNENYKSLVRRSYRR
Method in brief: as §1

HDAC2 = target: T3, HDAC2 (Homo sapiens, UniProt Q92769); assay: Initial HDAC2 IC50 estimate (BPS Biosciences HDAC fluorogenic assay kit); settings: Supplementary Dataset 2; read-out: HDAC2 activity (initial activity)
T3 construct: purchased Reaction Biology Corporation (assay run by the CRO)
T3 sequence (Q92769 whole entry): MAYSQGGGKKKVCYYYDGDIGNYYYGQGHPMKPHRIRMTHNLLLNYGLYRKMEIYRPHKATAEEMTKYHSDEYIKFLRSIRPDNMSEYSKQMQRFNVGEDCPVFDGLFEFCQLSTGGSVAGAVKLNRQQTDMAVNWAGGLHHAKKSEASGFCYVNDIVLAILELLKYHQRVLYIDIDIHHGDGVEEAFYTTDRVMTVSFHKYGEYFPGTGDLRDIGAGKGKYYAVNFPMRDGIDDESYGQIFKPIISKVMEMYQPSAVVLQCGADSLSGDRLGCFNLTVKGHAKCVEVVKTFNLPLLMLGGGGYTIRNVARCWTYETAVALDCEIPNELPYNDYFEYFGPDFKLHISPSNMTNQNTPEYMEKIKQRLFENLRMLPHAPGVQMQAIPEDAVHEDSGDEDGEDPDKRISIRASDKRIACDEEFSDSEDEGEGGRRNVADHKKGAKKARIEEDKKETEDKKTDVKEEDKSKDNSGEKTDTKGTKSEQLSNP
Method in brief: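 Inhibition measured by kit-based fluorogenic HDAC activity assays, with each point in duplicate or triplicate. Values come from a full 1 µM–100 pM series (1:10 steps) or are range estimates from just 20 nM and 200 nM.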

HDAC6 raw activity signal (HDAC6; Conc. 1.00E-05 M): 33328
HDAC6 raw activity signal (HDAC6; Conc. 1.11E-06 M): 230710
HDAC6 raw activity signal (HDAC6; Conc. 1.23E-07 M): 527992
HDAC6 raw activity signal (HDAC6; Conc. 1.37E-08 M): 589576
HDAC6 raw activity signal (HDAC6; Conc. 1.52E-09 M): 605039
HDAC6 raw activity signal (HDAC6; Conc. 3.33E-06 M): 100537
HDAC6 raw activity signal (HDAC6; Conc. 3.70E-07 M): 381738
HDAC6 raw activity signal (HDAC6; Conc. 4.12E-08 M): 574853
HDAC6 raw activity signal (HDAC6; Conc. 4.57E-09 M): 596934
HDAC6 raw activity signal (HDAC6; Conc. 5.08E-10 M): 614098
IC50 (HDAC6; read-out: HDAC6 IC50): 600 nM
HDAC3 raw activity signal (HDAC3; Conc. 1.00E-05 M): 305013
HDAC3 raw activity signal (HDAC3; Conc. 1.11E-06 M): 772070
HDAC3 raw activity signal (HDAC3; Conc. 1.23E-07 M): 916440
HDAC3 raw activity signal (HDAC3; Conc. 1.37E-08 M): 1023518
HDAC3 raw activity signal (HDAC3; Conc. 1.52E-09 M): 969054
HDAC3 raw activity signal (HDAC3; Conc. 3.33E-06 M): 650146
HDAC3 raw activity signal (HDAC3; Conc. 3.70E-07 M): 835487
HDAC3 raw activity signal (HDAC3; Conc. 4.12E-08 M): 896484
HDAC3 raw activity signal (HDAC3; Conc. 4.57E-09 M): 995503
HDAC3 raw activity signal (HDAC3; Conc. 5.08E-10 M): 959845
IC50 (HDAC2): 5000 nM
SMILES: N[C@@H](CCCCCS)C(=O)O [SHA, 2S-2-amino-7-sulfanylheptanoic acid]
HDAC6 inhibition potency in words (HDAC6): low micro-molar to high nano-molar affinities
HDAC3 inhibition potency in words (HDAC3): low micro-molar to high nano-molar affinities
